Experimental findings from US20260242388A1, “NBD1 MODULATORS AND METHODS OF USING THE SAME” (Sionna Therapeutics Inc., priority 2023, published 2026) are described below.

Molecules are shown by their SMILES.

This assay relates to NBD1. Kind of assay: Aggregation analysis using differential static light scattering (DSLS), thermal stability of NBD1. The assay is classed as binding, Human. As to conditions: 100 μM compound; ΔTagg = Tagg minus average Tagg of DMSO control wells; NBD1 0.2 mg/ml. As for the experimental part:
Example 23. Aggregation Analysis Using Differential Static Light Scattering (DSLS)
Purified recombinant NBD1 was produced using previously described methods (A. Schmidt, J. L. Mendoza, P. J. Thomas (2011) Biochemical and Biophysical Approaches to Probe CFTR Structure (365-376) M. D. Amaral, K. Kunzelmann (eds.), Cystic Fibrosis, Methods in Molecular Biology 741, Springer Science+Business Media). The effect of test compounds on thermal stability of NBD1 was evaluated by differential static light scattering (DSLS) using the Harbinger Stargazer-384 instrument (Epiphyte Three, Toronto, Canada). Test compounds were dissolved and diluted to desired concentrations in 100% DMSO. The compounds or DMSO controls (100 nL) were stamped into wells of a […] low volume optical plate (Corning Inc., Corning, NY) using the Echo 555 acoustic liquid handler (Labcyte Inc., San Jose, CA).
NBD1 protein was diluted to 0.2 mg/ml in S200 buffer (50 mM Tris-HCl, 150 mM NaCl, 5 mM MgCl2, 2 mM ATP, 2 mM DTT, pH7.6) containing 1% glycerol. 10 μL of protein solution was aliquoted into the 384-well plate harboring the test compounds and 10 μL mineral oil was overlayed onto the protein solution, using the epMotion robotic liquid handler (Eppendorf North America, Hauppauge, NY). After placing into the Stargazer instrument, the plate was heated at 1° C. per minute to 70° C. Images were captured from 25° C. to 70° C. every 0.5° C. At the end of the experiment run, instrument software integrated image files and analyzed data automatically. A linear regression curve was generated for each well, representing the increase in light scattering over time. A temperature of aggregation (Tagg) was calculated based on the inflection point of the curve. To better compare data across experiments the average Tagg for DMSO control wells was calculated and subtracted from values for wells containing compounds to obtain a “ΔTagg” value. These ΔTagg values reflect stabilizing efficacy of the compounds.
As for `O=C(O)CCc1cccc([C@@H]2NCCc3nc(-c4cc(Oc5c(F)cc6[nH]ccc6c5F)ccc4F)[nH]c32)c1F` (single isomer, unassigned) [Example 4], the “DSLS NBD1/3D Human Stability delta-T (° C.) @ 100 (μM)” value (shortened to “DSLS NBD1/3D Human Stability delta-T”) is “C (≤4° C.)”.
As for `CN1CCc2nc(-c3cc(Oc4c(F)cc5[nH]ccc5c4F)ccc3F)[nH]c2[C@H]1c1cccc(CCC(=O)O)c1F` (single isomer, unassigned) [Example 5], the entry is “B (4-8° C.)”.
Under `CN1CCc2nc(-c3cc(Oc4c(F)cc5[nH]ccc5c4F)ccc3F)[nH]c2[C@@H]1c1cccc(CCC(=O)O)c1F` (single isomer, unassigned) [Example 6] stands “A (T ≥ 8° C.)”; under `O=C(O)Cc1cccc(C2OCCc3[nH]c(-c4cc(Oc5c(F)cc6[nH]ccc6c5F)ccc4F)nc32)c1` (stereo not shown) [Example 2, 2-(3-(2-(5-((4,6-difluoro-1H-indol-5-yl)oxy)-2-fluorophenyl)-1,4,6,7-tetrahydropyrano[3,4-d]imidazol-4-yl)phenyl)acetic acid], “B (4-8° C.)”; under `CC(Cc1cccc(C2c3nc(-c4cc(Oc5c(F)cc6[nH]ccc6c5S(C)(=O)=O)ccc4F)[nH]c3CCN2C)c1F)C(=O)O` (stereo not shown) [Example 7, 3-[2-fluoro-3-[2-[2-fluoro-5-[(6-fluoro-4-methylsulfonyl-1H-indol-5-yl)oxy]phenyl]-5-methyl-1,4,6,7-tetrahydroimidazo[4,5-c]pyridin-4-yl]phenyl]-2-methyl-propanoic acid], “A (T ≥ 8° C.)”.
Under `Cc1c(-c2cc(Oc3c(F)cc4[nH]ccc4c3F)ccc2F)nc2n1CCNC2c1cccc(CC(O)CO)c1F` (stereo not shown) [Example 9, 3-[3-[2-[5-[(4,6-difluoro-1H-indol-5-yl)oxy]-2-fluoro-phenyl]-3-methyl-5,6,7,8-tetrahydroimidazo[1,2-a]pyrazin-8-yl]-2-fluoro-phenyl]propane-1,2-diol] stands “B (4-8° C.)”; under `CCOC(=O)C(C)Cc1cccc(C2NCCn3c2nc(-c2cc(Oc4c(F)cc5[nH]ccc5c4F)ccc2F)c3C)c1F` (stereo not shown) [Example 10, ethyl 3-[3-[2-[5-[(4,6-difluoro-1H-indol-5-yl)oxy]-2-fluoro-phenyl]-3-methyl-5,6,7,8-tetrahydroimidazo[1,2-a]pyrazin-8-yl]-2-fluoro-phenyl]-2-methyl-propanoate], “C (≤4° C.)”; under `CCOC(=O)CCc1cccc(C2c3nc(-c4cc(Oc5c(F)cc6[nH]ccc6c5S(C)(=O)=O)ccc4F)[nH]c3CCN2C)c1F` (stereo not shown) [Example 13, ethyl 3-[2-fluoro-3-[2-[2-fluoro-5-[(6-fluoro-4-methylsulfonyl-1H-indol-5-yl)oxy]phenyl]-5-methyl-1,4,6,7-tetrahydroimidazo[4,5-c]pyridin-4-yl]phenyl]propanoate], “B (4-8° C.)”.
In the case of `CN1CCc2[nH]c(-c3cc(Oc4c(F)cc5[nH]ccc5c4S(C)(=O)=O)ccc3F)nc2C1c1cccc(CCC(=O)O)c1F` (stereo not shown) [Example 14, 3-[2-fluoro-3-[2-[2-fluoro-5-[(6-fluoro-4-methylsulfonyl-1H-indol-5-yl)oxy]phenyl]-5-methyl-1,4,6,7-tetrahydroimidazo[4,5-c]pyridin-4-yl]phenyl]propanoic acid], the “DSLS NBD1/3D Human Stability delta-T” value is given as “A (T ≥ 8° C.)”.
As to `CCOC(=O)CCc1cccc(C2c3nc(-c4cc(Oc5c(F)cc6[nH]ccc6c5S(C)(=O)=O)ccc4F)[nH]c3CCN2CC(F)F)c1F` (stereo not shown) [Example 15, ethyl 3-[3-[5-(2,2-difluoroethyl)-2-[2-fluoro-5-[(6-fluoro-4-methylsulfonyl-1H-indol-5-yl)oxy]phenyl]-1,4,6,7-tetrahydroimidazo[4,5-c]pyridin-4-yl]-2-fluoro-phenyl]propanoate], the “DSLS NBD1/3D Human Stability delta-T” value is listed as “C (≤4° C.)”.
As for `CS(=O)(=O)c1c(Oc2ccc(F)c(-c3nc4c([nH]3)CCN(CC(F)F)C4c3cccc(CCC(=O)O)c3F)c2)c(F)cc2[nH]ccc12` (stereo not shown) [Example 16, 3-[3-[5-(2,2-difluoroethyl)-2-[2-fluoro-5-[(6-fluoro-4-methylsulfonyl-1H-indol-5-yl)oxy]phenyl]-1,4,6,7-tetrahydroimidazo[4,5-c]pyridin-4-yl]-2-fluoro-phenyl]propanoic acid], the entry is “A (T ≥ 8° C.)”.
Under `CNC(=O)CCc1cccc(C2c3nc(-c4cc(Oc5c(F)cc6[nH]ccc6c5S(C)(=O)=O)ccc4F)[nH]c3CCN2CC(F)F)c1F` (stereo not shown) [Example 17, 3-[3-[5-(2,2-difluoroethyl)-2-[2-fluoro-5-[(6-fluoro-4-methylsulfonyl-1H-indol-5-yl)oxy]phenyl]-1,4,6,7-tetrahydroimidazo[4,5-c]pyridin-4-yl]-2-fluoro-phenyl]-N-methyl-propanamide] stands “B (4-8° C.)”; under `CCOC(=O)CCc1ccc(C2c3nc(-c4cc(Oc5c(F)cc6[nH]ccc6c5S(C)(=O)=O)ccc4F)[nH]c3CCN2C)s1` (stereo not shown) [Example 18, ethyl 3-[5-[2-[2-fluoro-5-[(6-fluoro-4-methylsulfonyl-1H-indol-5-yl)oxy]phenyl]-5-methyl-1,4,6,7-tetrahydroimidazo[4,5-c]pyridin-4-yl]-2-thienyl]propanoate], “B (4-8° C.)”.
Under `CN1CCc2[nH]c(-c3cc(Oc4c(F)cc5[nH]ccc5c4S(C)(=O)=O)ccc3F)nc2C1c1ccc(CCC(=O)O)s1` (stereo not shown) [Example 19, 3-[5-[2-[2-fluoro-5-[(6-fluoro-4-methylsulfonyl-1H-indol-5-yl)oxy]phenyl]-5-methyl-1,4,6,7-tetrahydroimidazo[4,5-c]pyridin-4-yl]-2-thienyl]propanoic acid] stands “A (T ≥ 8° C.)”; under `CN1CCc2[nH]c(-c3cc(Oc4c(F)cc5[nH]ccc5c4F)ccc3F)nc2C1c1cccc(CC(O)CO)c1F` (stereo not shown) [Example 20, 3-[3-[2-[5-[(4,6-difluoro-1H-indol-5-yl)oxy]-2-fluoro-phenyl]-5-methyl-1,4,6,7-tetrahydroimidazo[4,5-c]pyridin-4-yl]-2-fluoro-phenyl]propane-1,2-diol], “B (4-8° C.)”; under `CN1CCc2[nH]c(-c3cc(Oc4c(F)cc5[nH]ccc5c4S(C)(=O)=O)ccc3F)nc2C1c1cccc(CC(O)CO)c1F` (stereo not shown) [Example 21, 3-[2-fluoro-3-[2-[2-fluoro-5-[(6-fluoro-4-methylsulfonyl-1H-indol-5-yl)oxy]phenyl]-5-methyl-1,4,6,7-tetrahydroimidazo[4,5-c]pyridin-4-yl]phenyl]propane-1,2-diol], “A (T ≥ 8° C.)”.
